Data: patent US20180042851A1, “SOLID DISPERSIONS” (FMC Corporation, priority 2015, published 2018)
Where two headings read alike, the source gives them in different places.

Method: In vitro dissolution studies of the lovastatin:alginate solid dispersions produced above were carried out using the paddle method equipped with a USP II apparatus at 37.5±0.5° C. and a paddle speed of 50 rpm. The appropriate amount of lovastatin solid dispersion (containing 60 mg lovastatin) was added into 900 mL dissolution medium (0.05M pH6.8 phosphate buffer with 0.1% SDS as non-sink condition). Samples (6 mL) were collected at predetermined time intervals and immediately filtered through a 0.15 μm syringe filter, the first 2 mL of filtrate was discarded and the remaining filtrate was collected for analysis at 237 nm using a UV spectrophotometer (UV-2000, UNIC Instrument Corp., Shanghai, China). Meanwhile, an equal volume of fresh dissolution medium was added.

CC[C@H](C)C(=O)O[C@H]1C[C@@H](C)C=C2C=C[C@H](C)[C@H](CC[C@@H]3C[C@@H](O)CC(=O)O3)[C@H]21 [Drug Alone, lovastatin]
Cumulative Release (%) (0 minutes, 60 mg lovastatin in 900 mL pH6.8 phosphate buffer with 0.1% SDS, 37.5° C., 50 rpm): 0% | Cumulative Release (%) (5 minutes, pH6.8 phosphate buffer with 0.1% SDS, non-sink): 13.52% | Cumulative Release (%) (10 minutes, pH6.8 phosphate buffer with 0.1% SDS, non-sink): 18.29% | Cumulative Release (%) (15 minutes, pH6.8 phosphate buffer with 0.1% SDS, non-sink): 22.81% | Cumulative Release (%) (30 minutes, pH6.8 phosphate buffer with 0.1% SDS, non-sink): 29.77%
